Test results reported in patent publication US20260212981A1, “Methods of drug dosing based on early pharmacokinetics” (NUTROMICS […] LTD, priority 2022, published 2026).
Like-named read-outs stand apart in the source and are kept apart here.

Legend:
Type in all cases: in vivo
[1] = Vancomycin concentration in blood/serum of human participants (blood draws); conditions: blood, iv, 1 gram, single 1 gram IV infusion over 1 hour 40 minutes
Experimental: These human studies were performed at Monash Health, Monash Medical Centre, Clayton, Victoria 3168, Australia, under protocol reference number 2021/ETH80521 and protocol trial identified and registry 80521. Institutional Ethics Committee approval was obtained before commencement of the study.
(§1) 30 minutes (+15 minutes) post-application of the device, the participant received a single dose of vancomycin as an intravenous infusion (1 gram over 1 hour 40 minutes). The time of administration and completion of infusion was recorded.
Blood samples for the measurement of vancomycin concentrations were collected prior to the administration of vancomycin infusion, 30 minutes (±5 minutes) and 1 hour (±10 minutes) during the infusion, at the end of the infusion (±15 minutes) and then at 40 minutes (±15 minutes), 1.5 hours (±15 minutes), 2 hours (±15 minutes), 3 hours (±15 minutes), 4 hours (±15 minutes), 6 hours (±15 minutes), 8 hours (±15 minutes) and 10 hours (±15 minutes) after the infusion has been completed.
These human studies characterised perfusion dynamics. The study was performed in relation to a 1000 mg vancomycin dose administered via venous infusion.
ISF dynamics are captured in real-time high resolution (every 5 minutes) detection of vancomycin concentration. […] In comparison to blood (Cmax, ~30 mg/L) very little vancomycin was monitored in the ISF compartment (Cmax~6 mg/L) which is interpreted as a low level of perfusion

[2] = Vancomycin concentration in dermal interstitial fluid (ISF) of human participants by wearable EAB sensor; conditions: 1 gram; for Kp: dermal interstitial fluid (ISF) relative to blood, intravenous, read-out: Proportion of vancomycin monitored in ISF compartment in comparison to blood; for Cmax: dermal interstitial fluid (ISF), iv, read-out: Cmax in ISF compartment
From the text: These human studies followed vancomycin levels using an EAB sensor (which may also be referred to as the “device”). The device was a self-contained wearable EAB sensor, constructed, having an on-board power supply, electrodes, and electronics, including a microprocessor and BlueTooth™ communications module.
The EAB sensor comprised four electrodes: two aptamer-coated working electrodes, a counter electrode, and a reference electrode. All electrodes were in the form of a microneedle configured to pierce the skin and contact the participant's ISF when fully inserted into the dermal tissues.
Each working electrode was coated with a vancomycin-sensitive single-stranded DNA-aptamer having a length of 28 nucleobases, obtained from Dr. Milan STOJANOVIC, New York campus research laboratory of The Trustees of Columbia University in the City of New York of 80 Claremont Avenue, 4th Floor, New York, NY 10027, United States.
A vancomycin-sensitive EAB sensor was placed onto the participant's upper arm (see FIG. 20), opposite the arm where vancomycin was being infused. The time of device application was recorded. The device was applied 30 minutes (+15 minutes) prior to administering the vancomycin infusion and the device was removed up to 10 hours post-cessation of the infusion.
as §1
Once applied to the participant, the DNA-based sensor electrodes were interrogated, and output treated as follows.
Square Wave Voltammetry (SWV) was used to interrogate the DNA-based sensor electrodes. Multiple steps were performed to convert the raw voltammograms obtained from the DNA-based sensor electrodes into a vancomycin concentration. The steps detailed below convert the raw SWV voltammograms into a signal that is indicative of the analyte concentration. • 1. Smooth the raw SWV voltammogram current versus voltage data to aid identification of the current peak and its magnitude. • 2. Apply a peak finding algorithm to the smoothed voltammogram to identify the position of the peak and to subtract a baseline current to determine a peak current magnitude. • 3. Use the determined peak currents magnitudes obtained at two different SWV interrogation frequencies (in this case 50 Hz and 300 Hz), when no vancomycin is present and when it is present to calculate an analyte concentration responsive signal (S). • 4. Smooth the S values over time, prior to applying a calibration function.
Steps 1 to 3 were used to analyse the calibration data as detailed below at (a) and (b), and steps 1 to 4 above in relation to the clinical data. • (a) Calibration data was produced from in vitro testing, where vancomycin is spiked into bovine plasma and tested using electrodes from the same production batch as those used in the clinical experiments (but not the electrode actually used in the clinical experiments). The purpose of this testing was to produce S versus known vancomycin concentration data that can be used to produce a calibration function to convert the S values into the corresponding measured vancomycin concentration values ([V]). • (b) Clinical experiment data, where the calibration function determined in (a) is applied to the S values produced by the in vivo electrodes in the clinical experiment, to convert them to measured vancomycin concentrations. […]

[3] = Skin surface temperature / adverse event monitoring of human participants during vancomycin infusion; conditions: for Physiologic response (skin surface temperature): temperature every 5 minutes
From the text: Reference is made to FIG. 21A and FIG. 21B each showing a computer-rendered representation of the device (10) used in these studies, indicating one of the microneedles (30), the power supply, being a battery (105), a printed circuit board (110) having various electronic components such as the communications module and microprocessor mounted thereon, and a thermistor (115) functioning to contact the skin surface of the participant and provide an estimation of the temperature of the underlying ISF.
Participants were monitored throughout the study duration for any adverse events. Given the duration of the study visit, participants were required to stay overnight. In the absence of any adverse events, participants were discharged the following morning after being observed for at least 15 minutes post removal of the device.
The EAB sensor used in these studies penetrated 1-2 mm into the dermal interstitial compartment with micron diameter electrodes coated with a specific DNA sequence for vancomycin detection. Additionally, the EAB sensor continuously monitored (every 5 minutes) surface temperature where the normal temperature range for a human is characterised between 31-35.5° C.

[4] = participant 014 (hyper-perfusion phenotype)

## CN[C@H](CC(C)C)C(=O)N[C@H]1C(=O)N[C@@H](CC(N)=O)C(=O)N[C@H]2C(=O)N[C@H]3C(=O)N[C@H](C(=O)N[C@H](C(=O)O)c4cc(O)cc(O)c4-c4cc3ccc4O)[C@H](O)c3ccc(c(Cl)c3)Oc3cc2cc(c3O[C@@H]2O[C@H](CO)[C@@H](O)[C@H](O)[C@H]2O[C@H]2C[C@](C)(N)[C@H](O)[C@H](C)O2)Oc2ccc(cc2Cl)[C@H]1O [vancomycin]
[1]; participant 012 (hypo-perfusion phenotype), 12 blood draws over 12 hours
  Cmax: ~30000 ng/mL
[1]; [4]
  Cmax: ~35000 ng/mL
[1]; participant 015 (moderate-perfusion phenotype), 12 blood draws over 12 hours
  Cmax: ~30000 ng/mL
[2]; [4]
  Kp: ~0.86
[2]; participant 015 (moderate-perfusion phenotype)
  Kp: ~0.3
[2]; participant 012 (hypo-perfusion phenotype), EAB sensor 812, single 1 gram IV infusion, read every 5 minutes
  Cmax: ~6000 ng/mL
[2]; participant 014 (hyper-perfusion phenotype), EAB sensor 810, single 1 gram IV infusion
  Cmax: ~10000 ng/mL
[2]; participant 015 (moderate-perfusion phenotype), EAB sensor 818, single 1 gram IV infusion, read every 5 minutes
  Cmax: ~10000 ng/mL
[3]; participant 012, no elevations above 36° C.
  Physiologic response (skin surface temperature): no physiologic response
[3]; participant 014, temperature elevations above 36° C. recorded, antihistamine treatment required
  Adverse reaction to vancomycin: sensitivity response to vancomycin which resulted in hives and itching
[3]; participant 015
  Physiologic response (skin surface temperature): no elevations depicting a physiological response
